Measured values: ChEMBL document CHEMBL1142986, “Synthesis of valiolamine and some precursors for bioactive carbaglycosylamines from (-)-vibo-quercitol produced by biogenesis of myo-inositol” (J Nat Prod, 2007)

Target: Alpha-glucosidase MAL12 (Saccharomyces cerevisiae S288c, UniProt P53341)
Experiment: Inhibition of baker's yeast alpha-glucosidase

Chain of Alpha-glucosidase MAL12 (P53341 whole entry): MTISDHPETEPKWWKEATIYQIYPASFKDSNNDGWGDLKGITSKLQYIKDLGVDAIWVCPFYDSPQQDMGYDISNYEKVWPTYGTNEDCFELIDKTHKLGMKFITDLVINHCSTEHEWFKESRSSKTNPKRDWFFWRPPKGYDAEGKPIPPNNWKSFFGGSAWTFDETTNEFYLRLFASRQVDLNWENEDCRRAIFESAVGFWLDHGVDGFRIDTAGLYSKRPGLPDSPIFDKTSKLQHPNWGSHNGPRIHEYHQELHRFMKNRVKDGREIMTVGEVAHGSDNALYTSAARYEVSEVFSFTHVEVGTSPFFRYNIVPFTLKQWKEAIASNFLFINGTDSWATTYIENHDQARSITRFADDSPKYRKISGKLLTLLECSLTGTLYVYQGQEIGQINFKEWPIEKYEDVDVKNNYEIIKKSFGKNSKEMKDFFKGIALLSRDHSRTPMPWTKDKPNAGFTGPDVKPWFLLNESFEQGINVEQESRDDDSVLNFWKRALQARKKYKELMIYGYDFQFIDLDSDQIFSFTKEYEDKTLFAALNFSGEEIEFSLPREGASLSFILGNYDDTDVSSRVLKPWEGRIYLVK

`N[C@@H]1C[C@](O)(CO)[C@@H](O)[C@H](O)[C@H]1O` gave an IC50 of 36 µM.
